Experimental data as given in PMC6862323, “Substitution of Arginine 120 in Human D-Amino Acid Oxidase Favors FAD-Binding and Nuclear Mistargeting” (Frontiers in Molecular Biosciences, 2019).
Where two headings read alike, the source gives them in different places.

Tests used:
[1] = molecular target: T1, R120E hDAAO variant (Homo sapiens, UniProt P14920, R120E); experiment: FAD and ligand binding by quenching of protein fluorescence, R120E hDAAO
T1 construct: His-tag (N); made in house; host or cells: E. coli BL21 (DE3) Star
T1 sequence (P14920 whole entry R120E): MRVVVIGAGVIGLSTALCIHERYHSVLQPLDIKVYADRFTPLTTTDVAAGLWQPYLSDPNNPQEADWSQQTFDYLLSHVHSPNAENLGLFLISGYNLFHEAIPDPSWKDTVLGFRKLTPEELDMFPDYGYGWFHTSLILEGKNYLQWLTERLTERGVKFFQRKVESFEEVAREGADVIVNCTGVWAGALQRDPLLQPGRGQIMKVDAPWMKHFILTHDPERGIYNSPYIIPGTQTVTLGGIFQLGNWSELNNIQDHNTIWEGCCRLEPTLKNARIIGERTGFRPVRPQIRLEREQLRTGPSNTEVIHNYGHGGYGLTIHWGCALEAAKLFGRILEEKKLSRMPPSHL
Description: (§1) Protein fluorescence spectra were recorded between 300 and 400 nm, with excitation at 280 nm using a Jasco FP-750 instrument (excitation slit of 10 nm; emission slit of 5 nm) in 10 mM potassium phosphate, pH 8.0, 1% (v/v) glycerol, 5 mM 2-mercaptoethanol, […]

[2] = molecular target: T2, R120L hDAAO variant (Homo sapiens, UniProt P14920, R120L); experiment: FAD and ligand binding by quenching of protein fluorescence, R120L hDAAO
T2 construct: His-tag (N); made in house; host or cells: E. coli BL21 (DE3) Star
T2 sequence (P14920 whole entry R120L): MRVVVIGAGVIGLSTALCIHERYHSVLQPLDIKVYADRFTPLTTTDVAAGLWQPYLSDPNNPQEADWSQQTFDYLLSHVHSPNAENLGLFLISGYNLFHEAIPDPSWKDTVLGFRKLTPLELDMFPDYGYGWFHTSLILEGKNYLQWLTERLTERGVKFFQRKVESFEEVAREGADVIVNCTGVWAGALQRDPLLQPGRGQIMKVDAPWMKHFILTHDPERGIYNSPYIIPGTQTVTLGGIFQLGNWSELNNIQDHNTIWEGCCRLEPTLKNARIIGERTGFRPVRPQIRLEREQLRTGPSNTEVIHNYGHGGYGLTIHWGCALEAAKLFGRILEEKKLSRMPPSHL
Description: as §1

[3] = molecular target: wild-type hDAAO; details: cited from earlier work
[4] = test system: wild-type hDAAO; parameters: method as in Molla et al. (2006) and Murtas et al. (2017); details: air saturation, 25°C, pH 8.5, ref Molla et al. (2006) and Murtas et al. (2017), cited from earlier work; for Km: read-out: apparent Km
[5] = molecular target: T1, R120E hDAAO variant; experiment: Apparent kinetic parameters on D-amino acids (oxygen electrode), R120E hDAAO; format: biochemical; details: air saturation, 25°C, pH 8.5, 0.2 mM FAD
Description: (§2) The kinetic parameters were determined on different D-amino acids, employing increasing substrate concentrations (Molla et al., [2000], [2006]). The apparent kinetic parameters were calculated using the initial reaction rate according to a Michaelis–Menten equation using the Kaleidagraph software (Synergy Software, Reading, PA, USA).
(§3) The apparent kinetic parameters were calculated according to a Michaelis–Menten equation using the initial velocity values determined at increasing D-amino acid concentrations and a fixed O2 concentration (air saturation) at pH 8.5 and 25°C, in the presence of 0.2 mM FAD to avoid apoprotein formation for wild-type hDAAO.

[6] = molecular target: T2, R120L hDAAO variant; experiment: Apparent kinetic parameters on D-amino acids (oxygen electrode), R120L hDAAO; format: biochemical; details: air saturation, 25°C, pH 8.5, 0.2 mM FAD
Description: as §2, §3

[7] = read-out: Benzoate Kd, first saturation phase
[8] = read-out: Benzoate Kd, second saturation phase

| Kd [1, 7] | Kd [1, 8] | Kd ([1]; read-out: Kd for the second phase of binding) | Kd [2, 7] | Kd [2, 8] | Km [5] | apparent kcat [5] | Km [6] | apparent kcat [6] | Compound | Kd ([3]; ref Murtas et al. (2017), read-out: Benzoate Kd, first saturation phase) | Kd ([3]; ref Murtas et al. (2017), read-out: Benzoate Kd, second saturation phase) | Kd ([3]; ref Murtas et al., 2017, read-out: Kd for the second phase of binding) | apparent kcat [4] | Km [4] |
| --- | --- | --- | --- | --- | --- | --- | --- | --- | --- | --- | --- | --- | --- | --- |
| 0.16 ± 0.01 µM | 7980 µM | ~8000 µM | 0.27 ± 0.12 µM | 6200 µM |  |  |  |  | O=C(O)c1ccccc1 [Benzoate, benzoate] | 0.33 ± 0.04 µM | 2590 µM | 2600 µM |  |  |
|  |  |  |  |  |  |  |  |  | C[C@@H](N)C(=O)O [D-Ala, D-alanine] |  |  |  | 5.2 ± 0.1 s⁻¹ | 1300 ± 200 µM |
|  |  |  |  |  | 600 ± 100 µM | 9.9 ± 0.5 s⁻¹ | 700 ± 100 µM | 15.6 ± 0.7 s⁻¹ | N[C@H](CS)C(=O)O [D-Cys, D-cysteine] |  |  |  | 8.6 ± 0.2 s⁻¹ | 600 ± 100 µM |
|  |  |  |  |  | 17600 ± 3500 µM | 8.5 ± 0.4 s⁻¹ | 26700 ± 4500 µM | 11.3 ± 0.4 s⁻¹ | N[C@H](CO)C(=O)O [D-Ser, D-serine] |  |  |  | 3.0 ± 0.1 s⁻¹ | 7500 ± 500 µM |
